According to patent US7820623B2 (priority 2006, dated 2010):
Bridge positions count the residues as written; N and C are the ends. Square brackets hold non-standard residues; d marks the D form. Peptide text beside a SMILES is read from it. 1Nal = N[C@@H](Cc1cccc2ccccc12)C(=O)O

Assays:
[1] = tested on: thapsigargin-induced IFN-g production in human whole blood; format: cell-based; conditions: read-out: Analogue Activity (IC50) WB/IFNg
[2] = tested on: thapsigargin-induced IL-2 production in human whole blood; conditions: read-out: Analogue Activity (IC50) WB/IL-2

SMILES	IC50 [1] [nM]	IC50 [2] [nM]
CC[C@H](C)[C@@H]1NC(=O)[C@H](CCCCN)NC(=O)[C@@H](NC(=O)[C@H](CCCCN)NC(=O)[C@@H](NC(=O)[C@H](CC(N)=O)NC(=O)[C@@H](NC(=O)[C@@H](NC(=O)[C@@H](NC(=O)CN)C(C)C)[C@@H](C)CC)[C@@H](C)CC)C(C)C)CSSC[C@@H]2NC(=O)[C@H](CCCCN)NC(=O)[C@H](C)NC(=O)[C@H](Cc3ccccc3)NC(=O)[C@H](CCCNC(=N)N)NC(=O)[C@H](CCSC)NC(=O)CNC(=O)[C@H](C)NC(=O)[C@H](CCCCN)NC(=O)[C@H](CCCCN)NC(=O)[C@@H]3CSSC[C@@H](C(=O)N[C@H](C(=O)N4CCC[C@H]4C(=O)N[C@@H](CCCCN)C(=O)O)[C@@H](C)O)NC(=O)[C@H](Cc4c[nH]cn4)NC(=O)[C@H](CSSC[C@H](NC(=O)[C@H](CCC(N)=O)NC(=O)[C@H](CCCNC(=N)N)NC(=O)[C@H](CO)NC1=O)C(=O)N[C@@H](CC(C)C)C(=O)N[C@@H](CCC(=O)O)C(=O)N1CCC[C@H]1C(=O)N3)NC(=O)[C@H](CCCCN)NC(=O)CNC(=O)[C@H](CC(N)=O)NC(=O)[C@H](CCSC)NC2=O [G26A] (H-GVIINVKCKISRQCLEPCKKAGMRFAKCMNGKCHCTPK-OH; disulfide 8-28, 14-33, 18-35)	10.7	12.1
CC[C@H](C)[C@@H]1NC(=O)[C@H](CCCCN)NC(=O)[C@@H](NC(=O)[C@H](CCCCN)NC(=O)[C@@H](NC(=O)[C@H](CC(N)=O)NC(=O)[C@@H](NC(=O)[C@@H](NC(=O)[C@@H](NC(=O)CN)C(C)C)[C@@H](C)CC)[C@@H](C)CC)C(C)C)CSSC[C@@H]2NC(=O)[C@H](CCCCN)NC(=O)[C@H](Cc3cccc4ccccc34)NC(=O)[C@H](Cc3ccccc3)NC(=O)[C@H](CCCNC(=N)N)NC(=O)[C@H](CCSC)NC(=O)CNC(=O)[C@H](C)NC(=O)[C@H](CCCCN)NC(=O)[C@H](CCCCN)NC(=O)[C@@H]3CSSC[C@@H](C(=O)N[C@H](C(=O)N4CCC[C@H]4C(=O)N[C@@H](CCCCN)C(=O)O)[C@@H](C)O)NC(=O)[C@H](Cc4c[nH]cn4)NC(=O)[C@H](CSSC[C@H](NC(=O)[C@H](CCC(N)=O)NC(=O)[C@H](CCCNC(=N)N)NC(=O)[C@H](CO)NC1=O)C(=O)N[C@@H](CC(C)C)C(=O)N[C@@H](CCC(=O)O)C(=O)N1CCC[C@H]1C(=O)N3)NC(=O)[C@H](CCCCN)NC(=O)CNC(=O)[C@H](CC(N)=O)NC(=O)[C@H](CCSC)NC2=O [G26Nal] (H-GVIINVKCKISRQCLEPCKKAGMRF[1Nal]KCMNGKCHCTPK-OH; disulfide 8-28, 14-33, 18-35)	10.7	9.9
CC[C@H](C)[C@@H]1NC(=O)[C@H](CCCCN)NC(=O)[C@@H](NC(=O)[C@H](CCCCN)NC(=O)[C@@H](NC(=O)[C@H](CC(N)=O)NC(=O)[C@@H](NC(=O)[C@@H](NC(=O)[C@@H](NC(=O)CN)C(C)C)[C@@H](C)CC)[C@@H](C)CC)C(C)C)CSSC[C@@H]2NC(=O)[C@H](CCCCN)NC(=O)CNC(=O)[C@H](Cc3ccccc3)NC(=O)[C@H](CCCNC(=N)N)NC(=O)[C@H](CCSC)NC(=O)CNC(=O)[C@H](C)NC(=O)[C@H](CCCCN)NC(=O)[C@H](CCCCN)NC(=O)[C@@H]3CSSC[C@@H](C(=O)N[C@H](C(=O)N4CCC[C@H]4C(=O)N[C@@H](CCCCN)C(=O)O)[C@@H](C)O)NC(=O)[C@H](Cc4c[nH]cn4)NC(=O)[C@H](CSSC[C@H](NC(=O)[C@H](CCC(N)=O)NC(=O)[C@H](CCCNC(=N)N)NC(=O)[C@H](CO)NC1=O)C(=O)N[C@@H](CC(C)C)C(=O)N[C@@H](CCC(=O)O)C(=O)N1CCC[C@H]1C(=O)N3)NC(=O)[C@H](CCCCN)NC(=O)[C@H](CCC(=O)O)NC(=O)[C@H](CC(N)=O)NC(=O)[C@H](CCSC)NC2=O [G31E] (H-GVIINVKCKISRQCLEPCKKAGMRFGKCMNEKCHCTPK-OH; disulfide 8-28, 14-33, 18-35)	0.111	0.095
